Measured values published in EP0932388B1, “DOSAGE FORM AND METHOD FOR ADM[…]” (ALZA CORPORATION, priority 1996, dated 1998).

System: school children
Assay: clinical study of methylphenidate release profiles (SKAMP and CLAM ratings, mathematics test, activity monitor)
Format: in vivo
Details: oral
Description: The CLAM Test is a behavior rating that indicates social conformity or rebellion as developed by Conners, Lonez, and Milch and SKAMP is a rating that also measures behavior as developed by Swanson and reported in Psychopharmacological Bulletin, Vol. 21, pp. 887-890 (1985).
The effect measurements in this study were: (1) observer ratings on SKAMP scale (during classroom time) and (2) performance on the computerized mathematics test. Each child was tested on the mathematics test before the study began, and based on this pre-test during the study, a mathematics test appropriate for each child's ability was given. The morning and evening parent CLAM assessments were used to identify unusual behaviors. The evening parent CLAM was used to determine the presence of treatment effects in the evening hours, particularly treatment effects on the time the child fell asleep, and whether the child's sleep was interrupted. All of the children also wore an activity monitor (Actigraph) which records the movements of the child throughout the day. The activity (number of movements per minute) is recorded electronically and modeled as a function of the drug effect.
The immediate release tablet and the sustained-release dosage form were compared to a sustained-release dosage form that administered methylphenidate in an ascending profile. The sustained-release ascending profile corresponds to administering 4.2 mg at zero hour, 1.1 mg at 1.5 hours, 1.1 mg at 2 hours, 1.2 mg at 2.5 hours, 1.2 mg at 3.0 hours, 1.3 mg at 3.5 hours, 1.3 mg at 4 hours, 1.5 mg at 4.5 hours, 1.5 mg at 5 hours, 1.8 mg at 5.5 hours, 1.8 mg at 6 hours, and 2.0 mg at 6.5 hours, to produce the sustained-ascending release dotted line profile seen in Figure 2.
The accompanying figures present the results of the above-described study. […]

`COC(=O)C(c1ccccc1)C1CCCCN1` (stereo not drawn) [methylphenidate] was tested, and the “therapeutic effect and tolerance” value (controlled-sustained ascending profile of methylphenidate) was “desired therapeutic effect without tolerance”, the acute tolerance (sustained-nonascending dose of methylphenidate (20 mg program)) was “development of acute tolerance” and the “behavior, activity and mathematical scores” value (sustained-nonascending dose of methylphenidate (20 mg program), versus placebo) was “a decrease in activity, higher mathematical scores and a lessening of inappropriate behavior”.
